Reference: patent US11427567B2, “Imidazolyl pyrimidinylamine compounds as CDK2 inhibitors” (Incyte Corporation, priority 2019, dated 2022)

Target: CDK2/Cyclin E1 (Homo sapiens (Human), UniProt P24941)
Experiment: CDK2/Cyclin E1 HTRF enzyme activity assay (Example A)
Type: biochemical
Conditions: 1 mM ATP
Experimental: Assays were conducted in white 384-well polystyrene plates in a final reaction volume of 8 μL. […] HTRF signals were read after 1 hour at room temperature on a PHERAstar FS plate reader (BMG Labtech). Data was analyzed with IDBS XLFit and GraphPad Prism 5.0 software using a three or four parameter dose response curve to determine IC50 for each compound.

IC50, ≤ 50 nM:
CN1CCN(Cc2ccc(-n3cnc(-c4nc(NC5CCN(S(C)(=O)=O)CC5)ncc4C(F)(F)F)c3)c(Cl)c2)CC1 [Example 209, 4-(1-(2-Chloro-4-((4-methylpiperazin-1-yl)methyl)phenyl)-1H-imidazol-4-yl)-N-(1-(methylsulfonyl)-piperidin-4-yl)-5-(trifluoromethyl)-pyrimidin-2-amine]
CNCc1ccc(-n2cnc(-c3nc(NC4CCN(S(C)(=O)=O)CC4)ncc3C(F)(F)F)c2)c(C)c1 [Example 272, 4-(1-(2-Methyl-4-((methylamino)methyl)phenyl)-1H-imidazol-4-yl)-N-(1-(methylsulfonyl)piperidin-4-yl)-5-(trifluoromethyl)pyrimidin-2-amine]
CCc1ccc(-n2cnc(-c3nc(NC4CCN(S(C)(=O)=O)CC4)ncc3C(F)(F)F)c2)c(C(F)(F)F)n1 [Example 95, 4-(1-(6-Ethyl-2-(trifluoromethyl)pyridin-3-yl)-1H-imidazol-4-yl)-N-(1-(methylsulfonyl)piperidin-4-yl)-5-(trifluoromethyl) pyrimidin-2-amine]
CS(=O)(=O)N1CCC(Nc2ncc(C(F)(F)F)c(-c3cn(-c4ccc(OC(F)F)cc4C#N)cn3)n2)CC1 [Example 126, 5-(Difluoromethoxy)-2-(4-(2-((1-(methylsulfonyl)piperidin-4-yl)amino)-5-(trifluoromethyl)pyrimidin-4-yl)-1H-imidazol-1-yl)benzonitrile]
Cc1nc(-c2nc(NC3CCN(S(C)(=O)=O)CC3)ncc2C(F)(F)F)cn1-c1ccc(CN2CC(C)(O)C2)cc1F [Example 354, 1-(3-Fluoro-4-(2-methyl-4-(2-((1-(methylsulfonyl)piperidin-4-yl)amino)-5-(trifluoromethyl)pyrimidin-4-yl)-1H-imidazol-1-yl)benzyl)-3-methylazetidin-3-ol]
CCNCc1cc(F)c(-n2cnc(-c3nc(NC4CCN(S(C)(=O)=O)CC4)ncc3C(F)(F)F)c2)c(F)c1 [Example 349, 4-(1-(4-((Ethylamino)methyl)-2,6-difluorophenyl)-1H-imidazol-4-yl)-N-(1-(methylsulfonyl)piperidin-4-yl)-5-(trifluoromethyl)pyrimidin-2-amine]
Cc1nc(-c2nc(NC3CCN(S(C)(=O)=O)CC3)ncc2C(F)(F)F)cn1-c1ccc(N2CCC(N(C)C)CC2)cc1F [Example 101, 4-(1-(4-(4-(Dimethylamino)piperidin-1-yl)-2-fluorophenyl)-2-methyl-1H-imidazol-4-yl)-N-(1-(methylsulfonyl)piperidin-4-yl)-5-(trifluoromethyl)pyrimidin-2-amine]
CC(C)NCc1cc(F)c(-n2cnc(-c3nc(N[C@H]4CCN(S(C)(=O)=O)C[C@H]4F)ncc3C(F)(F)F)c2)c(F)c1 [Example 386, 4-(1-(2,6-Difluoro-4-((isopropylamino)methyl)phenyl)-1H-imidazol-4-yl)-N-((3R,4S)-3-fluoro-1-(methylsulfonyl)piperidin-4-yl)-5-(trifluoromethyl)pyrimidin-2-amine]
CCC(O)c1cccc(-n2cnc(-c3nc(NC4CCN(S(C)(=O)=O)CC4)ncc3C(F)(F)F)c2)c1Cl (centres unmarked) [Example 85, 1-(2-Chloro-3-(4-(2-((1-(methylsulfonyl)piperidin-4-yl)amino)-5-(trifluoromethyl)pyrimidin-4-yl)-1H-imidazol-1-yl)phenyl)propan-1-ol]
Cc1nc(-c2nc(N[C@H]3CCN(S(C)(=O)=O)C[C@H]3F)ncc2C(F)(F)F)cn1-c1cccc(C#N)c1Cl [Example 384, 2-Chloro-3-(4-(2-(((3R,4S)-3-fluoro-1-(methylsulfonyl)piperidin-4-yl)amino)-5-(trifluoromethyl)pyrimi-din-4-yl)-2-methyl-1H-imidazol-1-yl)benzonitrile]
CNCc1cc(F)c(-n2cnc(-c3nc(NC4CCN(S(C)(=O)=O)CC4)ncc3C(F)(F)F)c2)c(F)c1 [Example 350, 4-(1-(2,6-Difluoro-4-((methylamino)methyl)phenyl)-1H-imidazol-4-yl)-N-(1-(methylsulfonyl)piperidin-4-yl)-5-(trifluoromethyl)pyrimidin-2-amine]
CS(=O)(=O)N1CCC(Nc2ncc(C(F)(F)F)c(-c3cn(-c4cccc(CO)c4Cl)cn3)n2)CC1 [Example 84, (2-Chloro-3-(4-(2-((1-(methylsulfonyl)piperidin-4-yl)amino)-5-(trifluoromethyl)pyrimidin-4-yl)-1H-imidazol-1-yl)phenyl)methanol]
CCS(=O)(=O)N1CCC(Nc2ncc(C(F)(F)F)c(-c3cn(-c4ccc(C#N)nc4C)cn3)n2)CC1 [Example 93, 5-(4-(2-((1-(Ethylsulfonyl)piperidin-4-yl)amino)-5-(trifluoromethyl)pyrimidin-4-yl)-1H-imidazol-1-yl)-6-methylpicolinonitrile]
CC(C)NC(C)c1cccc(-n2cnc(-c3nc(NC4CCN(S(C)(=O)=O)CC4)ncc3C(F)(F)F)c2)c1Cl (centres unmarked) [Example 468, 4-(1-(2-Chloro-3-(1-(isopropylamino)ethyl)phenyl)-1H-imidazol-4-yl)-N-(1-(methylsulfonyl)piperidin-4-yl)-5-(trifluoromethyl)pyrimidin-2-amine]
Cc1nc(-c2nc(NC3CCN(S(C)(=O)=O)CC3)ncc2C(F)(F)F)cn1-c1ccc(C#N)cc1F [Example 303, 3-Fluoro-4-(2-methyl-4-(2-((1-(methylsulfonyl)piperidin-4-yl)amino)-5-(trifluoromethyl)pyrimidin-4-yl)-1H-imidazol-1-yl)benzonitrile]
CS(=O)(=O)N1CC[C@@H](Nc2ncc(C(F)(F)F)c(-c3cn(-c4c(F)cc(CN5CCC5)cc4Cl)cn3)n2)[C@H](F)C1 [Example 404, 4-(1-(4-(Azetidin-1-ylmethyl)-2-chloro-6-fluorophenyl)-1H-imidazol-4-yl)-N-((3R,4R)-3-fluoro-1-(methylsulfonyl)piperidin-4-yl)-5-(trifluoromethyl)pyrimidin-2-amine]
CC(c1ccc(-n2cnc(-c3nc(NC4CCN(S(C)(=O)=O)CC4)ncc3C(F)(F)F)c2)c(Cl)c1)N1CCC1 (centres unmarked) [Example 274, 4-(1-(4-(1-(Azetidin-1-yl)ethyl)-2-chlorophenyl)-1H-imidazol-4-yl)-N-(1-(methylsulfonyl)piperidin-4-yl)-5-(trifluoromethyl)pyrimidin-2-amine]
C[C@@H]1CN(S(=O)(=O)c2cn(C)cn2)CC[C@@H]1Nc1ncc(C(F)(F)F)c(-c2cn(CC(F)F)cn2)n1 [Example 337, 4-(1-(2,2-Difluoroethyl)-1H-imidazol-4-yl)-N-((3R,4S)-3-methyl-1-((1-methyl-1H-imidazol-4-yl)sulfonyl)piperidin-4-yl)-5-(trifluoromethyl)pyrimidin-2-amine]
CCOc1ccc(-n2cnc(-c3nc(NC4CCN(S(C)(=O)=O)CC4)ncc3C(F)(F)F)c2)c(C#N)c1 [Example 436, 5-Ethoxy-2-(4-(2-((1-(methylsulfonyl)piperidin-4-yl)amino)-5-(trifluoromethyl)pyrimidin-4-yl)-1H-imidazol-1-yl)benzonitrile]
CS(=O)(=O)N1CC[C@H](Nc2ncc(C(F)(F)F)c(-c3cn(CC(F)F)cn3)n2)[C@H](F)C1 [Example 330, 4-(1-(2,2-Difluoroethyl)-1H-imidazol-4-yl)-N-((3R,4S)-3-fluoro-1-(methylsulfonyl)piperidin-4-yl)-5-(trifluoromethyl)pyrimidin-2-amine]
C[C@]1(O)CCN(Cc2ccc(-n3cnc(-c4nc(N[C@@H]5CCN(S(C)(=O)=O)C[C@H]5F)ncc4C(F)(F)F)c3)c(Cl)c2)C1 [Example 410, (S)-1-(3-Chloro-4-(4-(2-(((3R,4R)-3-fluoro-1-(methylsulfonyl)piperidin-4-yl)amino)-5-(trifluoromethyl)pyrimidin-4-yl)-1H-imidazol-1-yl)benzyl)-3-methylpyrrolidin-3-ol]
Cc1ccc(-n2cnc(-c3nc(NC4CCN(S(C)(=O)=O)CC4)ncc3C(F)(F)F)c2)c(C#N)c1Cl [Example 62, 2-Chloro-3-methyl-6-(4-(2-((1-(methylsulfonyl)piperidin-4-yl)amino)-5-(trifluoromethyl)pyrimidin-4-yl)-1H-imidazol-1-yl)benzonitrile]
CO[C@@H]1CCN(Cc2ccc(-n3cnc(-c4nc(NC5CCN(S(C)(=O)=O)CC5)ncc4C(F)(F)F)c3)c(Cl)c2)C1 [Example 207, (R)-4-(1-(2-Chloro-4-((3-methoxypyrrolidin-1-yl)methyl)phenyl)-1H-imidazol-4-yl)-N-(1-(methylsulfonyl)-piperidin-4-yl)-5-(trifluoromethyl)-pyrimidin-2-amine]
CNCc1ccc(-n2cnc(-c3nc(NC4CCN(S(C)(=O)=O)CC4)ncc3C(F)(F)F)c2)c(C(F)F)n1 [Example 245, 4-(1-(2-(Difluoromethyl)-6-((methylamino)methyl)pyridin-3-yl)-1H-imidazol-4-yl)-N-(1-(methylsulfonyl)piperidin-4-yl)-5-(trifluoromethyl)pyrimidin-2-amine]
Cc1nc(-c2nc(NC3CCN(S(C)(=O)=O)CC3)ncc2C(F)(F)F)cn1-c1ccc(CN2CCC2)cc1F [Example 281, 4-(1-(4-(Azetidin-1-ylmethyl)-2-fluorophenyl)-2-methyl-1H-imidazol-4-yl)-N-(1-(methylsulfonyl)piperidin-4-yl)-5-(trifluoromethyl)pyrimidin-2-amine]
CCNC(=O)c1ccc(-n2cnc(-c3nc(NC4CCN(S(C)(=O)=O)CC4)ncc3C(F)(F)F)c2)c(C)n1 [Example 134, N-Ethyl-6-methyl-5-(4-(2-((1-(methyl-sulfonyl)piperidin-4-yl)amino)-5-(trifluoromethyl)-pyrimidin-4-yl)-1H-imidazol-1-yl)picolinamide]
